Assay results as given in patent US9139532B2, “Pyrazolyl guanidine F1F0-atpase inhibitors and therapeutic uses thereof” (Lycera Corporation, priority 2010, dated 2015).
Like-named read-outs stand apart in the source and are kept apart here.

Key:
F1F0-ATPase = biological target: T1, F1F0-ATPase (Bos taurus, UniProt P13621); assay: Inhibition of F1F0-ATPase activity in synthesizing ATP; assay type: biochemical; settings: inhibition of ATP synthesis by F1F0-ATPase; read-out: ATP Syn IC50
T1 construct: from tissue

Ramos cells = assay: Cytotoxicity in Ramos cells; assay type: cell-based; settings: cytotoxicity in Ramos cells, read-out: Ramos Cell EC50

| SMILES | IC50 (F1F0-ATPase) [µM] | EC50 (Ramos cells) [µM] | EC50 (Ramos cells; Homo sapiens) [µM] |
| --- | --- | --- | --- |
| CC(N/C(=N/C(=O)c1ccc(F)cc1)Nc1cc(-c2ccc(F)cc2)n[nH]1)C1CCCO1 (centres unmarked) [Compound A-207] | > 10 | > 10 |  |
| O=C(/N=C(/NCC1CCCCO1)Nc1cc(-c2ccc(F)cc2)n[nH]1)c1ccc(F)cc1 (centres unmarked) [Compound A-208] | > 10 | > 10 |  |
| O=C(N=C(NCC1CCO1)Nc1cc(-c2ccc(F)cc2)n[nH]1)c1ccc(Cl)c(F)c1 (centres unmarked) [Compound A-215] | > 10 |  | > 10 |
| CC(C)N/C(=N/C(=O)c1ccc(Cl)cc1)Nc1cc(-c2cc(F)cc(F)c2)n[nH]1 [Compound A-230] | < 10 | < 10 |  |
| CCC(C)N/C(=N/C(=O)c1ccc(Cl)cc1)Nc1cc(-c2cc(F)cc(F)c2)n[nH]1 (centres unmarked) [Compound A-234] | < 10 | < 10 |  |
| COCC(C)NC(=NC(=O)c1ccc(C(F)(F)F)cc1)Nc1cc(-c2ccc(Cl)cc2)n[nH]1 (centres unmarked) [Compound A-238] | < 10 |  | < 10 |
| O=C(N=C(Nc1cc(-c2ccc(Cl)cc2)n[nH]1)NC1CCCC1)c1ccc(C(F)(F)F)cc1 [Compound A-239] | < 10 |  | > 10 |
| CC(C)CN/C(=N/C(=O)c1ccc(C(F)(F)F)cc1)Nc1cc(-c2ccc(Cl)cc2)n[nH]1 [Compound A-240] | < 10 | < 10 |  |
| CC(C)N/C(=N/C(=O)c1ccc(C(F)(F)F)cc1)Nc1cc(-c2ccc(Cl)cc2)n[nH]1 [Compound A-241] | < 10 | < 10 |  |
| CCOC[C@H](C)NC(=NC(=O)c1ccc(F)cc1)Nc1cc(-c2cc(F)cc(F)c2)n[nH]1 [Compound A-242] | < 10 |  | < 10 |
| O=C(/N=C(\Nc1cc(-c2cc(F)cc(F)c2)n[nH]1)NC1CCCC1)c1ccc(F)cc1 [Compound A-243] | < 10 | < 10 |  |
| CC(C)CN/C(=N/C(=O)c1ccc(F)cc1)Nc1cc(-c2cc(F)cc(F)c2)n[nH]1 [Compound A-244] | < 10 | < 10 |  |
| CC(C)N/C(=N/C(=O)c1ccc(F)cc1)Nc1cc(-c2cc(F)cc(F)c2)n[nH]1 [Compound A-245] | < 10 | < 10 |  |
| COCC(C)NC(=NC(=O)c1ccc(F)c(F)c1)Nc1cc(-c2cc(F)cc(Cl)c2)n[nH]1 (centres unmarked) [Compound A-246] | < 10 |  | < 10 |
| CCOC[C@H](C)N/C(=N/C(=O)c1ccc(F)c(F)c1)Nc1cc(-c2cc(F)cc(Cl)c2)n[nH]1 [Compound A-247] | < 10 |  | < 10 |
| O=C(N=C(Nc1cc(-c2ccc(F)cc2)n[nH]1)NC1CCCC1)c1ccc(Cl)cc1 [Compound A-248] | < 10 |  | < 10 |
| CC(C)CNC(=NC(=O)c1ccc(Cl)cc1)Nc1cc(-c2ccc(F)cc2)n[nH]1 [Compound A-249] | < 10 |  | < 10 |
| CC(C)N/C(=N/C(=O)c1ccc(Cl)cc1)Nc1cc(-c2ccc(F)cc2)n[nH]1 [Compound A-250] | < 10 | < 10 |  |

| SMILES | IC50 (F1F0-ATPase) [µM] | EC50 (Ramos cells) [µM] | EC50 (Ramos cells; Homo sapiens) [µM] |
| --- | --- | --- | --- |
| O=C(/N=C(\Nc1cc(-c2ccc(Cl)cc2)n[nH]1)NC1CCC1)c1ccc(F)cc1 [Compound A-251] | < 10 | < 10 |  |
| CCOCC(C)NC(=NC(=O)c1ccc(F)cc1)Nc1cc(-c2ccc(Cl)cc2)n[nH]1 (centres unmarked) [Compound A-252] | < 10 |  | < 10 |
| O=C(/N=C(\Nc1cc(-c2ccc(Cl)cc2)n[nH]1)NC1CCCC1)c1ccc(F)cc1 [Compound A-253] | < 10 | < 10 |  |
| CC(C)CN/C(=N/C(=O)c1ccc(F)cc1)Nc1cc(-c2ccc(Cl)cc2)n[nH]1 [Compound A-254] | < 10 | < 10 |  |
| CC(C)NC(=NC(=O)c1ccc(F)cc1)Nc1cc(-c2ccc(Cl)cc2)n[nH]1 [Compound A-255] | < 10 |  | < 10 |
| CCOCC(C)NC(=NC(=O)c1cccc(F)c1)Nc1cc(-c2ccc(F)cc2)n[nH]1 (centres unmarked) [Compound A-256] | < 10 | < 10 |  |
| CC(C)CN/C(=N/C(=O)c1cccc(F)c1)Nc1cc(-c2ccc(F)cc2)n[nH]1 [Compound A-257] | < 10 | < 10 |  |
| CCOCC(C)NC(=NC(=O)c1ccc(F)c(F)c1)Nc1cc(-c2ccc(Cl)cc2)n[nH]1 (centres unmarked) [Compound A-258] | < 10 | < 10 |  |
| O=C(N=C(Nc1cc(-c2ccc(F)cc2)n[nH]1)NC1CCC1)c1ccc(F)c(F)c1 [Compound A-259] | < 10 |  | < 10 |
| O=C(/N=C(\Nc1cc(-c2ccc(F)cc2)n[nH]1)NC1CCCC1)c1ccc(F)c(F)c1 [Compound A-260] | < 10 | < 10 |  |
| CC(C)CN/C(=N/C(=O)c1ccc(F)c(F)c1)Nc1cc(-c2ccc(F)cc2)n[nH]1 [Compound A-261] | < 10 | < 10 |  |
| CC(C)N/C(=N/C(=O)c1ccc(F)c(F)c1)Nc1cc(-c2ccc(F)cc2)n[nH]1 [Compound A-262] | < 10 | < 10 |  |
| CCOCC(C)NC(=NC(=O)c1ccc(F)c(F)c1)Nc1cc(-c2ccc(F)cc2)n[nH]1 (centres unmarked) [Compound A-263] | < 10 | < 10 |  |
| O=C(N=C(Nc1cc(-c2ccc(F)cc2)n[nH]1)NC1CCC1)c1ccc(Cl)cc1 [Compound A-264] | < 10 |  | < 10 |
| CCOC[C@H](C)NC(=NC(=O)c1ccc(Cl)cc1)Nc1cc(-c2ccc(F)cc2)n[nH]1 [Compound A-265] | < 10 |  | < 10 |
| O=C(/N=C(/NCC1CCO1)Nc1cc(-c2ccc(F)cc2)n[nH]1)c1ccc(F)c(F)c1 (centres unmarked) [Compound A-266] | < 10 | < 10 |  |
| CCOCC(C)N/C(=N/C(=O)c1ccc(F)c(F)c1)Nc1cc(-c2ccc(F)cc2)n[nH]1 (centres unmarked) [Compound A-267] | < 10 | < 10 |  |
| CCC(COC)N/C(=N/C(=O)c1ccc(F)c(F)c1)Nc1cc(-c2ccc(F)cc2)n[nH]1 (centres unmarked) [Compound A-268] | < 10 | < 10 |  |

Continued, in another order:

| IC50 (F1F0-ATPase) [µM] | SMILES | EC50 (Ramos cells) [µM] | EC50 (Ramos cells; Homo sapiens) [µM] |
| --- | --- | --- | --- |
| < 10 | CCC(C)N/C(=N/C(=O)c1ccc(F)cc1)Nc1cc(-c2ccc(Cl)cc2)n[nH]1 (centres unmarked) [Compound A-209] |  | < 10 |
| < 10 | CC1(CNC(=NC(=O)c2ccc(Cl)c(F)c2)Nc2cc(-c3ccc(F)cc3)n[nH]2)CCCO1 (centres unmarked) [Compound A-210] |  | < 10 |
| < 10 | CC1(CNC(=NC(=O)c2ccc(F)c(F)c2)Nc2cc(-c3ccc(Cl)cc3)n[nH]2)CCCO1 (centres unmarked) [Compound A-211] |  | > 10 |
| < 10 | CC1(CNC(=NC(=O)c2ccc(Cl)cc2)Nc2cc(-c3cc(F)cc(F)c3)n[nH]2)CCCO1 (centres unmarked) [Compound A-212] |  | < 10 |
| < 10 | CCOC(C)CN/C(=N/C(=O)c1ccc(Cl)c(F)c1)Nc1cc(-c2ccc(F)cc2)n[nH]1 (centres unmarked) [Compound A-213] | < 10 |  |
| < 10 | CCOC(C)CN/C(=N/C(=O)c1ccc(F)c(F)c1)Nc1cc(-c2ccc(Cl)cc2)n[nH]1 (centres unmarked) [Compound A-214] | < 10 |  |
| < 10 | CC(C)N/C(=N/C(=O)c1ccc(Cl)c(F)c1)Nc1cc(-c2ccc(F)cc2)n[nH]1 [Compound A-216] | < 10 |  |
| < 10 | CCOCC(C)NC(=NC(=O)c1ccc(Cl)c(F)c1)Nc1cc(-c2ccc(F)cc2)n[nH]1 (centres unmarked) [Compound A-217] |  | < 10 |
| < 10 | COCC(C)NC(=NC(=O)c1ccc(Cl)c(F)c1)Nc1cc(-c2ccc(F)cc2)n[nH]1 (centres unmarked) [Compound A-218] | < 10 |  |
| < 10 | CCC(C)N/C(=N/C(=O)c1ccc(Cl)c(F)c1)Nc1cc(-c2ccc(F)cc2)n[nH]1 (centres unmarked) [Compound A-219] | < 10 |  |
| < 10 | CC(C)CN/C(=N/C(=O)c1ccc(Cl)c(F)c1)Nc1cc(-c2ccc(F)cc2)n[nH]1 [Compound A-220] | < 10 |  |
| < 10 | O=C(N=C(Nc1cc(-c2ccc(F)cc2)n[nH]1)NC1CCCC1)c1ccc(Cl)c(F)c1 [Compound A-221] |  | < 10 |
| < 10 | O=C(/N=C(\Nc1cc(-c2ccc(F)cc2)n[nH]1)NC1CCC1)c1ccc(Cl)c(F)c1 [Compound A-222] | < 10 |  |
| < 10 | O=C(N=C(NCC1CCO1)Nc1cc(-c2ccc(Cl)cc2)n[nH]1)c1ccc(F)c(F)c1 (centres unmarked) [Compound A-223] |  | < 10 |
| < 10 | O=C(N=C(Nc1cc(-c2ccc(Cl)cc2)n[nH]1)NC1CCC1)c1ccc(F)c(F)c1 [Compound A-224] |  | > 10 |
| < 10 | CCC(C)N/C(=N/C(=O)c1ccc(F)c(F)c1)Nc1cc(-c2ccc(Cl)cc2)n[nH]1 (centres unmarked) [Compound A-225] | < 10 |  |
| < 10 | O=C(N=C(Nc1cc(-c2ccc(Cl)cc2)n[nH]1)NC1CCC1)c1ccc(Cl)c(F)c1 [Compound A-226] |  | < 10 |
| < 10 | COCC(C)NC(=NC(=O)c1ccc(Cl)cc1)Nc1cc(-c2cc(F)cc(F)c2)n[nH]1 (centres unmarked) [Compound A-228] | > 10 |  |
| < 10 | O=C(/N=C(\Nc1cc(-c2cc(F)cc(F)c2)n[nH]1)NC1CCCC1)c1ccc(Cl)cc1 [Compound A-229] | < 10 |  |
| < 10 | O=C(N=C(Nc1cc(-c2cc(F)cc(F)c2)n[nH]1)NC1CCC1)c1ccc(Cl)cc1 [Compound A-231] |  | < 10 |
| < 10 | CC(C)(C)NC(=NC(=O)c1ccc(Cl)cc1)Nc1cc(-c2cc(F)cc(F)c2)n[nH]1 [Compound A-232] |  | < 10 |
| < 10 | CC(C)CNC(=NC(=O)c1ccc(Cl)cc1)Nc1cc(-c2cc(F)cc(F)c2)n[nH]1 [Compound A-233] |  | < 10 |
| < 10 | CCOCCN/C(=N/C(=O)c1ccc(F)c(F)c1)Nc1cc(-c2ccc(F)cc2)n[nH]1 [Compound A-235] | < 10 |  |
| < 10 | O=C(/N=C(\Nc1cc(-c2ccc(Cl)cc2)n[nH]1)NC1CCC1)c1ccc(C(F)(F)F)cc1 [Compound A-236] | < 10 |  |
| < 10 | CCOCC(C)NC(=NC(=O)c1ccc(C(F)(F)F)cc1)Nc1cc(-c2ccc(Cl)cc2)n[nH]1 (centres unmarked) [Compound A-237] | < 10 |  |
